Assay results reported in US20260325605A1, “INHIBITORS” (Zealand Pharma A/S, priority 2022, published 2026).

Legend:
[1] = system: collagen-induced arthritis in rats; experiment: Example 9: Rat collagen-induced arthritis (CIA) model, clinical score; type: in vivo, rat (Lewis); design: key: qualitative severity score summed over four paws, maximum 16
Experimental: Vehicle: 10 mM phosphate pH 6+0.8% NaCl+0.05% polysorbate 20
Peptide: Peptide 100 is formulated in vehicle at 50 nmol/mL. Dosing volume was individually adjusted according to the body weight of each animal to reach the target dose of peptide 100 of 100 nmol/kg.
(§1) The animal care facility employed is accredited by AAALAC. Female Lewis rats, weighing 180±20 g at delivery were used for this study. Following arrival in the animal facility, all animals were subjected to a general health evaluation. An acclimation period of 1 day was allowed before the beginning of the study.
Animals were grouped into 9 each based on their body weight. All animals were challenged with porcine type-II collagen with incomplete Freund's adjuvant on day 1 (0.2 mg/0.2 mL/rat, subcutaneously at the base of the tail) and boosted on day 7 (0.1 mg/0.1 mL/rat, s.c.). In the study dexamethasone given daily PO at 0.3 mg/kg was used as a positive control.
From day 12 to day 30, peptide 100 was administered as a single bolus either daily (QD), every third day (Q3D) or every fifth day (Q5D) subcutaneously into the flank. […] The peptide and vehicle were dosed at a volume of 2 mL/kg. Dosing volume was individually adjusted according to the body weight of each animal to reach the target dose of formulation 1 of 100 nmol/kg.
Disease was assessed by using a qualitative severity score system (see below, maximum score of 16) on days 1, 7, 10, 12 (before dosing), 13, 14, 15, 16, 17, 18, 19, 20, 21, 22, 24, 26 and 28 before peptide treatment and one hour after treatment on day 30.
The disease severity score is based on the following:
The ability of Kv1.3 inhibitor treatment to reduce chronic inflammation in arthritis was investigated by comparing the response in rats (n=9 animals/group) treated with vehicle to that of rats treated with peptide 100 daily, every third day or every fifth day. The severity of arthritis was determined by summation of the disease score on all four paws from day 12 to day 30 for each animal.

[2] = system: KLH-induced DTH ear swelling in rats; experiment: Example 8: Long-lasting effect in KLH-induced delayed type hypersensitivity (DTH) model; type: in vivo, rat (Lewis)
Experimental: as §1
The animal room was maintained at a controlled temperature of 20-24° C. and a relative humidity of 30-70%. A controlled lighting system assured 12 hours light, 12 hours dark per day to the animals. Adequate ventilation of 15 air changes per hour was maintained.
This study was performed to investigate the length of effect of a Kv1.3 inhibitor (peptide 100) on ear inflammation in the KLH-induced DTH model in rats.
Healthy male Lewis rats aged 8-9 weeks were immunized on day 0 with 200 μL keyhole limpet hemocyanin (KLH) (from Sigma, cat.no. H7017) (4 mg/mL) emulsified in complete Freund's adjuvant (CFA) (Difco, cat.no. 263810) subcutaneously (SC) at the base of the tail.
To elicit a KLH-specific T cell-mediated local inflammation, rats were challenged intradermally at indicated timepoints (days 7, 9, 11 or 13 post-immunisation) with 40 μL KLH/NaCl 0.9% (2 mg/mL) in the left ear. Ear edemas were measured after 24-48 hrs and the right ear that was left untreated served as control. A schematic overview of the protocol is depicted in FIG. 1.
The ability of Kv1.3 inhibitor treatment to reduce the DTH ear swelling response was investigated by comparing the response in rats (n=8/group) treated with vehicle to that of rats treated with peptide 100. Vehicle or peptide 100 dissolved in vehicle was administered SC (2 mL/kg) on day 6. The test dose of Kv1.3 inhibitor was 300 nmol/kg. Test vehicle was 10 mM phosphate, 0.8% w/v NaCl, 0.05% w/v polysorbate20, pH 6. Cyclosporine A (CsA) was included as positive study control.
As readout of efficacy, the thickness of the induced ear 24 hrs and 48 hrs after respective ear challenge was measured and compared to vehicle control. Ear thickness 24 hrs after challenge is shown in Table 10 and FIG. 2 and ear thickness 48 hrs after challenge is shown in Table 11 and FIG. 3.

Kv1.3 = target: T1, Kv1.3 (Homo sapiens, UniProt P22001); experiment: Patch clamp assay (QPatch), Kv1.3; type: cell-based; settings: CHO cells stably expressing human Kv1.3, read-out: Potency IC50, Kv1.3
T1 construct: expressed in transfected cells
T1 sequence (P22001 whole entry): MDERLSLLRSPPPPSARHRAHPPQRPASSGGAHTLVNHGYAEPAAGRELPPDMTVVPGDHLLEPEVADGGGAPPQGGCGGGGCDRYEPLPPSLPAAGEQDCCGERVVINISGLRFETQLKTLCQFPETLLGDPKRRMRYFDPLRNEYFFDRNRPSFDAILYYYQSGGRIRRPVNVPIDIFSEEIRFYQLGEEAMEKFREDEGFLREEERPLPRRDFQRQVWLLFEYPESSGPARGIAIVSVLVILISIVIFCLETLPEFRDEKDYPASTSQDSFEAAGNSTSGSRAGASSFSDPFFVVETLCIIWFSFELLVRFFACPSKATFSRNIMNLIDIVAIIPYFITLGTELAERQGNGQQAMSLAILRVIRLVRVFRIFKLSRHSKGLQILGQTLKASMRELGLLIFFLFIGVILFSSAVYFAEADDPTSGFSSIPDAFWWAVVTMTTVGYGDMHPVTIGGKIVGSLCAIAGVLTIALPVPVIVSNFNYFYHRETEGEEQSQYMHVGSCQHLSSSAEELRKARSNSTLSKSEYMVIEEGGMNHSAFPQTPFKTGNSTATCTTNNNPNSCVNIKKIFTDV

**Q.** Which Mean clinical score ([1]; 100 nmol/kg s.c. daily, every third day or every fifth day, day 12 to day 30, in words) does the source give for “H-P[Nle]E[Nle]RC(1)SASVEC(2)KQKC(3)LAAIGSIFGKC(1)[Nle]NKKC(2)KC(3)YPR-OH [Peptide 100]” here?
**A.** The Mean clinical score was “reduction of the mean clinical score with all dosing regimens”.

**Q.** And the Mean clinical score ([1]; Q3D SC 100 nmol/kg, day 12)?
**A.** Its Mean clinical score is 0.8.

**Q.** And the Mean clinical score ([1]; Q3D SC 100 nmol/kg, day 13)?
**A.** The Mean clinical score was 2.0.

**Q.** What about the Mean clinical score ([1]; Q3D SC 100 nmol/kg, day 14) of the same substance?
**A.** Its Mean clinical score is 4.1.

**Q.** And the Mean clinical score ([1]; Q3D SC 100 nmol/kg, day 15)?
**A.** Its Mean clinical score is 4.4.

**Q.** What about the Mean clinical score ([1]; Q3D SC 100 nmol/kg, day 16) of the same substance?
**A.** Its Mean clinical score is 5.0.

**Q.** And the Mean clinical score ([1]; Q3D SC 100 nmol/kg, day 17)?
**A.** The Mean clinical score was 5.6.

**Q.** And the Mean clinical score ([1]; Q3D SC 100 nmol/kg, day 18)?
**A.** The Mean clinical score was 6.4.

**Q.** And the Mean clinical score ([1]; Q3D SC 100 nmol/kg, day 19)?
**A.** Its Mean clinical score is 6.6.

**Q.** What about the Mean clinical score ([1]; Q3D SC 100 nmol/kg, day 20) of the same substance?
**A.** Its Mean clinical score is 7.2.

**Q.** And the Mean clinical score ([1]; Q3D SC 100 nmol/kg, day 21)?
**A.** The Mean clinical score was 7.3.

**Q.** What about the Mean clinical score ([1]; Q3D SC 100 nmol/kg, day 22) of the same substance?
**A.** Its Mean clinical score is 8.0.

**Q.** And the Mean clinical score ([1]; Q3D SC 100 nmol/kg, day 24)?
**A.** The Mean clinical score was 8.2.

**Q.** And the Mean clinical score ([1]; Q3D SC 100 nmol/kg, day 26)?
**A.** Its Mean clinical score is 8.4.

**Q.** What about the Mean clinical score ([1]; Q3D SC 100 nmol/kg, day 28) of the same substance?
**A.** Its Mean clinical score is 9.0.

**Q.** What about the Mean clinical score ([1]; Q3D SC 100 nmol/kg, day 30) of the same substance?
**A.** Its Mean clinical score is 10.0.

**Q.** And the Mean clinical score ([1]; Q5D SC 100 nmol/kg, day 12)?
**A.** The Mean clinical score was 2.4.

**Q.** What about the Mean clinical score ([1]; Q5D SC 100 nmol/kg, day 13) of the same substance?
**A.** Its Mean clinical score is 3.3.

**Q.** What about the Mean clinical score ([1]; Q5D SC 100 nmol/kg, day 14) of the same substance?
**A.** The Mean clinical score was 4.6.

**Q.** What about the Mean clinical score ([1]; Q5D SC 100 nmol/kg, day 15) of the same substance?
**A.** The Mean clinical score was 4.9.

**Q.** And the Mean clinical score ([1]; Q5D SC 100 nmol/kg, day 16)?
**A.** Its Mean clinical score is 5.4.

**Q.** What about the Mean clinical score ([1]; Q5D SC 100 nmol/kg, day 17) of the same substance?
**A.** Its Mean clinical score is 5.8.

**Q.** What about the Mean clinical score ([1]; Q5D SC 100 nmol/kg, day 18) of the same substance?
**A.** Its Mean clinical score is 6.2.

**Q.** And the Mean clinical score ([1]; Q5D SC 100 nmol/kg, day 19)?
**A.** Its Mean clinical score is 6.4.

**Q.** And the Mean clinical score ([1]; Q5D SC 100 nmol/kg, day 20)?
**A.** Its Mean clinical score is 6.9.

**Q.** What about the Mean clinical score ([1]; Q5D SC 100 nmol/kg, day 21) of the same substance?
**A.** The Mean clinical score was 7.1.

**Q.** And the Mean clinical score ([1]; Q5D SC 100 nmol/kg, day 22)?
**A.** The Mean clinical score was 7.6.

**Q.** And the Mean clinical score ([1]; Q5D SC 100 nmol/kg, day 24)?
**A.** Its Mean clinical score is 8.2.

**Q.** And the Mean clinical score ([1]; Q5D SC 100 nmol/kg, day 26)?
**A.** The Mean clinical score was 8.5.

**Q.** And the Mean clinical score ([1]; Q5D SC 100 nmol/kg, day 28)?
**A.** The Mean clinical score was 9.0.

**Q.** And the Mean clinical score ([1]; Q5D SC 100 nmol/kg, day 30)?
**A.** Its Mean clinical score is 9.4.

**Q.** What about the Mean clinical score ([1]; QD SC 100 nmol/kg, day 12) of the same substance?
**A.** Its Mean clinical score is 0.8.

**Q.** What about the Mean clinical score ([1]; QD SC 100 nmol/kg, day 13) of the same substance?
**A.** The Mean clinical score was 2.1.

**Q.** What about the Mean clinical score ([1]; QD SC 100 nmol/kg, day 14) of the same substance?
**A.** The Mean clinical score was 4.3.

**Q.** And the Mean clinical score ([1]; QD SC 100 nmol/kg, day 15)?
**A.** Its Mean clinical score is 4.7.

**Q.** And the Mean clinical score ([1]; QD SC 100 nmol/kg, day 16)?
**A.** The Mean clinical score was 5.8.

**Q.** And the Mean clinical score ([1]; QD SC 100 nmol/kg, day 17)?
**A.** The Mean clinical score was 6.0.

**Q.** What about the Mean clinical score ([1]; QD SC 100 nmol/kg, day 18) of the same substance?
**A.** Its Mean clinical score is 6.6.

**Q.** What about the Mean clinical score ([1]; QD SC 100 nmol/kg, day 19) of the same substance?
**A.** Its Mean clinical score is 6.7.

**Q.** And the Mean clinical score ([1]; QD SC 100 nmol/kg, day 20)?
**A.** Its Mean clinical score is 7.0.

**Q.** What about the Mean clinical score ([1]; QD SC 100 nmol/kg, day 21) of the same substance?
**A.** Its Mean clinical score is 7.1.

**Q.** What about the Mean clinical score ([1]; QD SC 100 nmol/kg, day 22) of the same substance?
**A.** Its Mean clinical score is 7.1.

**Q.** And the Mean clinical score ([1]; QD SC 100 nmol/kg, day 24)?
**A.** Its Mean clinical score is 6.9.

**Q.** And the Mean clinical score ([1]; QD SC 100 nmol/kg, day 26)?
**A.** The Mean clinical score was 7.0.

**Q.** What about the Mean clinical score ([1]; QD SC 100 nmol/kg, day 28) of the same substance?
**A.** The Mean clinical score was 7.8.

**Q.** And the Mean clinical score ([1]; QD SC 100 nmol/kg, day 30)?
**A.** Its Mean clinical score is 8.4.

**Q.** What about the “effect on KLH-induced ear swelling / inflammation” value ([2]; 300 nmol/kg on day 6, challenges on days 7, 9 and 11, in words) of the same substance?
**A.** The value was “reduced KLH-induced ear swelling after challenges on days 7, 9 and 11”.

**Q.** And the “Mean ear thickness of KLH-induced ear” value ([2]; 300 nmol/kg s.c. day 6, challenge day 7, 24 hrs post-challenge (2 days post-treatment), vehicle 0.796, p<0.0001)?
**A.** Its value is 0.676±0.017 mm.

**Q.** And the “Mean ear thickness of KLH-induced ear” value ([2]; 300 nmol/kg s.c. day 6, challenge day 7, 48 hrs post-challenge (3 days post-treatment), vehicle 0.733, p<0.0001)?
**A.** Its value is 0.623±0.015 mm.

**Q.** And the “Mean ear thickness of KLH-induced ear” value ([2]; 300 nmol/kg s.c. day 6, challenge day 9, 24 hrs post-challenge (4 days post-treatment), vehicle 0.761, p=0.0011)?
**A.** The value was 0.689±0.031 mm.

**Q.** What about the “Mean ear thickness of KLH-induced ear” value ([2]; 300 nmol/kg s.c. day 6, challenge day 9, 48 hrs post-challenge (5 days post-treatment), vehicle 0.729, p=0.0002) of the same substance?
**A.** Its value is 0.659±0.034 mm.

**Q.** And the “Mean ear thickness of KLH-induced ear” value ([2]; 300 nmol/kg s.c. day 6, challenge day 11, 24 hrs post-challenge (6 days post-treatment), vehicle 0.784, p<0.0001)?
**A.** The value was 0.681±0.023 mm.

**Q.** What about the “Mean ear thickness of KLH-induced ear” value ([2]; 300 nmol/kg s.c. day 6, challenge day 11, 48 hrs post-challenge (7 days post-treatment), vehicle 0.746, p<0.0001) of the same substance?
**A.** Its value is 0.653±0.013 mm.

**Q.** What about the “Mean ear thickness of KLH-induced ear” value ([2]; 300 nmol/kg s.c. day 6, challenge day 13, 24 hrs post-challenge (8 days post-treatment), vehicle 0.767, p=0.0696, not significant) of the same substance?
**A.** The value was 0.729±0.038 mm.

**Q.** What about the “Mean ear thickness of KLH-induced ear” value ([2]; 300 nmol/kg s.c. day 6, challenge day 13, 48 hrs post-challenge (9 days post-treatment), vehicle 0.720, p=0.2256, not significant) of the same substance?
**A.** Its value is 0.699±0.028 mm.

**Q.** And the “Mean ear thickness of KLH-induced ear” value ([2]; measured 48 hrs post-challenge, day 3 post-treatment, 300 nmol/kg SC)?
**A.** Its value is 0.623 mm.

**Q.** What about the “Mean ear thickness of KLH-induced ear” value ([2]; measured 48 hrs post-challenge, day 5 post-treatment, 300 nmol/kg SC) of the same substance?
**A.** Its value is 0.659 mm.

**Q.** What about the “Mean ear thickness of KLH-induced ear” value ([2]; measured 48 hrs post-challenge, day 7 post-treatment, 300 nmol/kg SC) of the same substance?
**A.** Its value is 0.653 mm.

**Q.** What about the “Mean ear thickness of KLH-induced ear” value ([2]; measured 48 hrs post-challenge, day 9 post-treatment, 300 nmol/kg SC) of the same substance?
**A.** Its value is 0.699 mm.

**Q.** And the IC50 (Kv1.3)?
**A.** The IC50 was 330 pM.
